Measured values as given in patent publication US20250186562A1, “TARGET SUBSTRATE PROTEIN DEGRADATION PLATFORM” (The Regents of the University of California, priority 2022, published 2025).
Non-standard residues stand in square brackets, D forms with d. Residues, ends and D or L forms follow the SMILES beside them. No end group written: not given here. ξ: configuration not given here. Tyr(3-NO2) = N[C@@H](Cc1ccc(O)c([N+](=O)[O-])c1)C(=O)O; dPhe(4-guanidino) = N=C(N)Nc1ccc(C[C@@H](N)C(=O)O)cc1; fluorescein = fluorescein attached to the C-terminus; Phe(4-guanidino) = N=C(N)Nc1ccc(C[C@H](N)C(=O)O)cc1; Tyr(3-F) = N[C@@H](Cc1ccc(O)c(F)c1)C(=O)O; Arg(Me2a) = CN(C)C(=N)NCCC[C@H](N)C(=O)O; Phe(4-NH2) = Nc1ccc(C[C@H](N)C(=O)O)cc1; His(τ-Me) = Cn1cnc(C[C@H](N)C(=O)O)c1; His(π-Me) = Cn1cncc1C[C@H](N)C(=O)O; 4Pal = N[C@@H](Cc1ccncc1)C(=O)O; 2Thi = N[C@@H](Cc1cccs1)C(=O)O; Ile(3ξ) = CCC(C)[C@H](N)C(=O)O

Legend:
GST-Ubr-box of Ubr1 = GST-Ubr-box of Ubr1 (Homo sapiens (Human), UniProt Q8IWV7); assay: Competition fluorescence polarization (FP) assay, GST-Ubr-box of Ubr1; format: binding; conditions: for Ki: [GST-UBR1]=2 μM, tracer 9 nM, read-out: UBR1 Affinity Ki FP
Chain of GST-Ubr-box of Ubr1 (Q8IWV7 other isoform, or with tags, fused parts or gaps): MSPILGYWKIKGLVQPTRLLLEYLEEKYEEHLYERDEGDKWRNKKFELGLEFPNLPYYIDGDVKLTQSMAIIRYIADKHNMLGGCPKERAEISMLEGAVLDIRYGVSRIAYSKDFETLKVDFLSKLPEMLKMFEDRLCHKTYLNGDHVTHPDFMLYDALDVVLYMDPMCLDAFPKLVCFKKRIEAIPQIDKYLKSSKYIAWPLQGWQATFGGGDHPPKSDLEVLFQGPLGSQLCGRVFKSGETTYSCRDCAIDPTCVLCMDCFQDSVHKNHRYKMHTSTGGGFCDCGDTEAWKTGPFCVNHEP
Source text: (§1) Fluorescence Polarization (FP) assays were used to determine binding affinity of the peptidomimetic compounds for the Ubr box (FIGS. 4A-B). FIG. 1A depicts the mechanism of action of peptidomimetic compounds that include a linker. […] Binding affinities as determined by Structure Activity Relationship Studies (SARs) of additional peptidomimetic compounds to GST-Ubr-box of Ubr 1 and Ubr2 are shown in Table 1.
(§2) The FP assay uses a tetrapeptide with a sequence arginine-isoleucine-phenylalanine-serine (RIFS) with fluorescein attached to the C-terminus as tracer that was previously shown to bind to the Ubr-boxes of Ubr1 and Ubr2 with similar binding affinity. Assays were developed in 384-well plates, which were read on a Clariostar Reader. Signal-to-background ratio (S/B) was optimized by varying concentrations of GST-Ubr-box and tracer concentrations. GST-fusion proteins were used due to its larger size than Ubr-box alone to increase the FP effect. […] The optimized condition includes receptor concentration [GST-UBR1]=2 μM, tracer concentration [tracer]=9 nM, and the highest concentration of unlabeled peptidomimetic compound competitors at 200 μM with 3× serial dilutions.
(§3) Preliminary ITC measurements confirmed the FP measurements (FIG. 4C).

GST-Ubr-box of Ubr2 = GST-Ubr-box of Ubr2 (Homo sapiens (Human), UniProt Q8IWV8); assay: Competition fluorescence polarization (FP) assay, GST-Ubr-box of Ubr2; format: binding; conditions: read-out: UBR2 Affinity Ki FP
Chain of GST-Ubr-box of Ubr2 (Q8IWV8 other isoform, or with tags, fused parts or gaps): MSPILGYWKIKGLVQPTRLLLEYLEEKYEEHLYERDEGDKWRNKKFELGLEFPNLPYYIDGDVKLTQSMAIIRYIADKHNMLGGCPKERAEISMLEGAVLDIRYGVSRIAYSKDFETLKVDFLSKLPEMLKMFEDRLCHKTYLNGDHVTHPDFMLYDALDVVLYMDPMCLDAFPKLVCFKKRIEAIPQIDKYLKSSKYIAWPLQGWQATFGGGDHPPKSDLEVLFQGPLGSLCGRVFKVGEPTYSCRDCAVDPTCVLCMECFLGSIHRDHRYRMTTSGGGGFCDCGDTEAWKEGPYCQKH
Source text: as §1, §2, §3

[1] = system: Ubr-mediated GFP degradation (Ubiquitin-R-GFP model Ubr substrate); assay: R-GFP degradation in cells (fluorescent imaging); format: cell-based; conditions: cells expressing Ubiquitin-R-GFP
Source text: The peptidomimetic compound outcompetes the R-GFP model Ubr substrate for E3 binding, therefore preventing GFP degradation. The upper panels show fluorescent imaging of the cells and the lower panel show a bright field of the cells.

ERRα protein = ERRα protein (Homo sapiens (Human), UniProt P11474); assay: ERRα protein level in Hela cells by Western blot; format: cell-based; conditions: Hela cells treated overnight at 100 nM, 33.3 nM, and 11.1 nM; Western blot of whole cell lysates
Chain of ERRα protein (P11474 whole entry): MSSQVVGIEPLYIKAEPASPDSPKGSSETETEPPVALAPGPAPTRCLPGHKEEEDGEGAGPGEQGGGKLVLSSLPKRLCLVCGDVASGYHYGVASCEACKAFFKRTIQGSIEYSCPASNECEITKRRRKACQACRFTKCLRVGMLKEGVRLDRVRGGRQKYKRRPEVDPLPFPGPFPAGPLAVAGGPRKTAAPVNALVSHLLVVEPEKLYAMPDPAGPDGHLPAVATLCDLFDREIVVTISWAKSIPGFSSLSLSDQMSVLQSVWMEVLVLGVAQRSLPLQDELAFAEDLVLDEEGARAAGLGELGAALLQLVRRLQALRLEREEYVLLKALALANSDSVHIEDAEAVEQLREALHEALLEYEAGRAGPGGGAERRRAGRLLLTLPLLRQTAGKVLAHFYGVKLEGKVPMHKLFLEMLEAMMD
Description: In this experiment, Hela cells were treated overnight at a concentration of 100 nM, 33.3 nM, and 11.1 nM with the above peptidomimetic compound. The ERRα protein was detected by Western blot from whole cell lysates. Glyceraldehyde 3-phosphate dehydrogenase (GAPDH) was blotted as loading control.

Ubr-box of Ubr1 = Ubr-box of Ubr1 (Homo sapiens (Human), UniProt Q8IWV7); assay: FP titration of GST-Ubr-box into tracer, Ubr1; format: binding; conditions: 9 nM tracer
Chain of Ubr-box of Ubr1 (Q8IWV7 other isoform, or with tags, fused parts or gaps): as the sequence (Q8IWV7 other isoform, or with tags, fused parts or gaps) above
Source text: as §2, §3

Ubr-box of Ubr2 = Ubr-box of Ubr2 (Homo sapiens (Human), UniProt Q8IWV8); assay: FP titration of GST-Ubr-box into tracer, Ubr2; format: binding; conditions: 9 nM tracer
Chain of Ubr-box of Ubr2 (Q8IWV8 other isoform, or with tags, fused parts or gaps): as the sequence (Q8IWV8 other isoform, or with tags, fused parts or gaps) above
Source text: as §2, §3

Compound | Ki (GST-Ubr-box of Ubr1) [µM] | Ki (GST-Ubr-box of Ubr2) [µM] | also measured
N=C(N)NCCC[C@H](N)C(=O)N[C@@H](Cc1ccc(O)c([N+](=O)[O-])c1)C(=O)N[C@@H](Cc1ccccc1)C(N)=O [Compound 1] | 1 to 10 | 1 to 10 | –
CC[C@H](C)[C@H](NC(=O)[C@@H](N)Cc1ccc(N=C(N)N)cc1)C(=O)N[C@@H](Cc1ccccc1)C(N)=O [Compound 2] (H-[Phe(4-guanidino)]-Ile-Phe-NH2) | 1 to 10 | < 1 | –
CC[C@H](C)[C@H](NC(=O)[C@@H](N)CCONC(=N)N)C(=O)N[C@@H](Cc1ccccc1)C(N)=O [Compound 3] | 10 to 100 | 10 to 100 | –
CC[C@H](C)[C@H](NC(=O)[C@@H](N)CCCNC(=N)NCC(F)(F)F)C(=O)N[C@@H](Cc1ccccc1)C(N)=O [Compound 4] | < 1 | < 1 | concentration at which R-GFP degradation in cells is blocked [1]: > 1 µM
CC[C@H](C)[C@H](NC(=O)[C@@H](N)Cc1ccc(NC(N)=O)cc1)C(=O)N[C@@H](Cc1ccccc1)C(N)=O [Compound 5] | > 100 | 10 to 100 | –
CC[C@H](C)[C@H](NC(=O)[C@@H](N)CCCN(C)C(=N)NC)C(=O)N[C@@H](Cc1ccccc1)C(N)=O [Compound 6] | > 100 | > 100 | –
CNC(=N)N(C)CCC[C@H](N)C(=O)N[C@@H](Cc1ccc(O)c(C)c1)C(=O)N[C@@H](Cc1ccccc1)C(N)=O [Compound 7] | 10 to 100 | 10 to 100 | –
CC[C@H](C)[C@H](NC(=O)[C@@H](N)Cc1nn[nH]n1)C(=O)N[C@@H](Cc1ccccc1)C(N)=O [Compound 8] | > 100 | > 100 | –
CCNC(=N)N(CC)CCC[C@H](N)C(=O)N[C@H](C(=O)N[C@@H](Cc1ccccc1)C(N)=O)[C@@H](C)CC [Compound 9] | 10 to 100 | 10 to 100 | –
CC[C@H](C)[C@H](NC(=O)[C@@H](N)Cc1cncn1C)C(=O)N[C@@H](Cc1ccccc1)C(N)=O [Compound 10] (H-[His(π-Me)]-Ile-Phe-NH2) | > 100 | > 100 | –
CNC(=N)N(C)CCC[C@H](N)C(=O)N[C@@H](Cc1ccc(O)c([N+](=O)[O-])c1)C(=O)N[C@@H](Cc1ccccc1)C(N)=O [Compound 11] | 10 to 100 | 1 to 10 | –
CNC(=N)N(C)CCC[C@H](N)C(=O)N[C@@H](Cc1ccc(O)c([N+](=O)[O-])c1)C(=O)N[C@@H](Cc1ccccc1)C(N)=O [Compound 12] | 1 to 10 | < 1 | –
CC[C@H](C)[C@H](NC(=O)[C@@H](N)Cc1cn(C)cn1)C(=O)N[C@@H](Cc1ccccc1)C(N)=O [Compound 13] (H-[His(τ-Me)]-Ile-Phe-NH2) | > 100 | > 100 | –
COc1ccc(C[C@H](NC(=O)[C@@H](N)CCCNC(=N)NCC(F)(F)F)C(=O)N[C@@H](Cc2ccccc2)C(N)=O)cc1 [Compound 14] | < 1 | < 1 | –
COc1ccc(C[C@H](NC(=O)[C@@H](N)CCCNC(=N)N(C)C)C(=O)N[C@@H](Cc2ccccc2)C(N)=O)cc1 [Compound 15] (H-[Arg(Me2a)]-Tyr(Me)-Phe-NH2) | < 1 | < 1 | –
COc1ccc(C[C@H](NC(=O)[C@H](N)Cc2ccc(N=C(N)N)cc2)C(=O)N[C@@H](Cc2ccccc2)C(N)=O)cc1 [Compound 16] (H-[dPhe(4-guanidino)]-Tyr(Me)-Phe-NH2) | < 1 | < 1 | –
NCC(=O)N[C@@H](Cc1ccc(O)c([N+](=O)[O-])c1)C(N)=O [Compound 17] (H-Gly-[Tyr(3-NO2)]-NH2) | > 100 | > 100 | –
NC(=O)[C@H](Cc1ccccc1)NC(=O)[C@@H](N)Cc1ccc(O)c([N+](=O)[O-])c1 [Compound 18] (H-[Tyr(3-NO2)]-Phe-NH2) | > 100 | > 100 | –

Compound | Ki (GST-Ubr-box of Ubr1) [µM] | Ki (GST-Ubr-box of Ubr2) [µM] | also measured
CN(C)C(=N)NCCC[C@H](N)C(=O)N[C@@H](Cc1ccc(O)c([N+](=O)[O-])c1)C(=O)N[C@@H](Cc1ccccc1)C(N)=O [Compound 19] (H-[Arg(Me2a)]-[Tyr(3-NO2)]-Phe-NH2) | < 1 | < 1 | –
N=C(NCCC[C@H](N)C(=O)N[C@@H](Cc1ccc(O)c(Cl)c1)C(=O)N[C@@H](Cc1ccccc1)C(N)=O)NCC(F)(F)F [Compound 20] | < 1 | < 1 | –
CC[C@H](C)[C@H](NC(=O)[C@@H](N)Cc1cccs1)C(=O)N[C@@H](Cc1ccccc1)C(N)=O [Compound 21] (H-[2Thi]-Ile-Phe-NH2) | > 100 | > 100 | –
CC[C@H](C)[C@H](NC(=O)[C@H](Cc1ccccc1)NC(=O)[C@@H](N)Cc1ccncc1)C(N)=O [Compound 22] (H-[4Pal]-Phe-Ile-NH2) | > 100 | > 100 | –
CC[C@H](C)[C@H](NC(=O)[C@@H](N)Cc1ccncc1)C(=O)N[C@@H](Cc1ccccc1)C(N)=O [Compound 23] (H-[4Pal]-Ile-Phe-NH2) | > 100 | > 100 | –
CCC(C)[C@H](NC(=O)[C@@H](N)Cc1ccc(NC(C)=O)cc1)C(=O)N[C@@H](Cc1ccccc1)C(N)=O (some centres unmarked) [Compound 24] (H-[Phe(4-NH2)](Ac)-[Ile(3ξ)]-Phe-NH2) | 10 to 100 | 10 to 100 | –
N=C(N)NCCC[C@H](N)C(=O)N[C@@H](Cc1ccc(O)c(Cl)c1)C(=O)N[C@@H](Cc1ccccc1)C(N)=O [Compound 25] | 1 to 10 | 10 to 100 | –
CC(C[C@H](NC(=O)[C@@H](N)CCCNC(=N)N)C(=O)N[C@@H](Cc1ccccc1)C(N)=O)C(F)(F)F (some centres unmarked) [Compound 26] | < 1 | < 1 | –
CCC(C)C(NC(=O)[C@@H](N)CCCNC(=N)N)C(=O)N[C@@H](Cc1ccccc1)C(N)=O (some centres unmarked) [Compound 27] | 1 to 10 | 1 to 10 | –
CN(C)C(=N)NCCC[C@H](N)C(=O)N[C@@H](Cc1ccc(O)c(F)c1)C(=O)N[C@@H](Cc1ccccc1)C(N)=O [Compound 28] (H-[Arg(Me2a)]-[Tyr(3-F)]-Phe-NH2) | < 1 | 1 to 10 | –
CN(C)C(=N)NCCC[C@H](N)C(=O)N[C@@H](Cc1cscn1)C(=O)N[C@@H](Cc1ccccc1)C(N)=O [Compound 29] | 1 to 10 | 1 to 10 | –
CN(C)C(=N)NCCC[C@H](N)C(=O)N[C@@H](Cc1cccs1)C(=O)N[C@@H](Cc1ccccc1)C(N)=O [Compound 30] | < 1 | 1 to 10 | –
CN(C)C(=N)NCCC[C@H](N)C(=O)N1CCC[C@H]1C(=O)N[C@@H](Cc1ccccc1)C(N)=O [Compound 31] (H-[Arg(Me2a)]-Pro-Phe-NH2) | > 100 | > 100 | –
CC[C@H](C)[C@H](NC(=O)[C@@H](N)CCC/N=C(\N)N(C)C)C(=O)N[C@@H](Cc1ccccc1)C(N)=O [Compound 32] (H-[Arg(Me2a)]-Ile-Phe-NH2) | 1 to 10 | 1 to 10 | –
N=C(NCCC[C@H](N)C(=O)N[C@@H](Cc1ccc(O)c([N+](=O)[O-])c1)C(=O)N[C@@H](Cc1ccccc1)C(N)=O)NCC(F)(F)F [Compound 33] | < 1 | < 1 | –
COc1cc(/C=C2\SC(=O)N(Cc3cn(CCCNC(=O)[C@H](Cc4ccccc4)NC(=O)[C@H](Cc4ccc(O)c([N+](=O)[O-])c4)NC(=O)[C@@H](N)CCCNC(=N)NCC(F)(F)F)nn3)C2=O)ccc1Oc1ccc(C#N)cc1C(F)(F)F [above peptidomimetic compound] | – | – | levels of the ERRα protein in cells (ERRα protein): reduction of levels of the ERRα protein
tracer: tetrapeptide arginine-isoleucine-phenylalanine-serine (RIFS) with fluorescein attached to the C-terminus as tracer (RIFS-fluorescein) | – | – | binding of tracer to Ubr-box of Ubr1 (Ubr-box of Ubr1): can bind; binding of tracer to Ubr-box of Ubr2 (Ubr-box of Ubr2): can bind
unlabeled tetrapeptide: unlabeled tetrapeptide (RIFS sequence without fluorescein tag) used as competitor [reference compound] | – | – | displacement of tracer (GST-Ubr-box of Ubr1): Effective displacement of tracer
